# Data from ChEMBL document CHEMBL4311992, “Discovery of 3-(((9H-purin-6-yl)amino)methyl)-4,6-dimethylpyridin-2(1H)-one derivatives as novel tubulin polymerization inhibitors for treatment of cancer” (Eur J Med Chem, 2019).
# pIC50: −log10 of the molar value. Active and inactive are the calls of the source. The calls are words filed in the database; no cut-off is given here.
# What was measured:
# [1] = molecular target: Inhibitor of nuclear factor kappa-B kinase subunit alpha (Homo sapiens) (UniProt O15111); test: Inhibition of recombinant full-length human IKKalpha ([…]) assessed as residual activity at 10 uM using peptide substrate measured after 40 mins in presence of [gamma33P]ATP by scintillation counting method
# Chain of Inhibitor of nuclear factor kappa-B kinase subunit alpha (Homo sapiens) (O15111 whole entry): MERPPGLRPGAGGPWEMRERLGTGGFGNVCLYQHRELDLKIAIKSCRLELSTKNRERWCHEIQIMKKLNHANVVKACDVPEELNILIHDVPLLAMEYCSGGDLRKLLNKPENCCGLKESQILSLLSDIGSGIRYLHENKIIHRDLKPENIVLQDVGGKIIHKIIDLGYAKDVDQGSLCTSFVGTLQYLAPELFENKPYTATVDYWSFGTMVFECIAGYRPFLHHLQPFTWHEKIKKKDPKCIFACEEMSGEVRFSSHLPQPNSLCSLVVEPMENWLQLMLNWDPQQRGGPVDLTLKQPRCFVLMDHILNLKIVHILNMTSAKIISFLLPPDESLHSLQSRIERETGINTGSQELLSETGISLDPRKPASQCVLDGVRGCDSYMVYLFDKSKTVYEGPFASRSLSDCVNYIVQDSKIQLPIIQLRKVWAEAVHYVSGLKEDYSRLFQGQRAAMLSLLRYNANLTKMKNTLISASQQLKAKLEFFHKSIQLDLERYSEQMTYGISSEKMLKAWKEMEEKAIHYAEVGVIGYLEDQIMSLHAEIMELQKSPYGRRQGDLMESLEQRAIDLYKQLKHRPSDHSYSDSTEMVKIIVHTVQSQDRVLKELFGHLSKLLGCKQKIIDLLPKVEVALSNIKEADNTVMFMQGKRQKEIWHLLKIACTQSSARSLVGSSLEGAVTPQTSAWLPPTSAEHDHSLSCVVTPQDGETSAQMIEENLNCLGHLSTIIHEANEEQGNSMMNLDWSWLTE
# HCT-116 [2] = test: Induction of apoptosis in human HCT116 cells assessed as viable cells at 25 nM measured after 48 hrs by Annexin V-FITC/propidium iodide staining-based flow cytometry (reference value: 94.5%); type: functional; details: HCT-116, 48 h, read-out: Activity
# [3] = tested on: Hepatocyte growth factor receptor (Homo sapiens), P08581 [D1228N]; test: Inhibition of recombinant human MET A1209G/V1290L/D1246N mutant (974 to end residues) assessed as residual activity at 10 uM using KKKGQEEEYVFIE as substrate measured after 40 mins in presence of [gamma33P]ATP by scintillation counting method
# Homo sapiens = species on record: Homo sapiens; test: Inhibition of human Ros V2262A mutant (1883 to end residues) using KKKSPGEYVNIEFG as substrate measured after 40 mins in presence of [gamma33P]ATP by scintillation counting method; parameters: scale not given: the % may be the effect or the level left
# [4] = molecular target: Protein kinase C iota type (Homo sapiens) (UniProt P41743); test: Inhibition of recombinant full-length human PKCiota assessed as residual activity at 10 uM using ERMRPRKRQGSVRRRV as substrate measured after 40 mins in presence of [gamma33P]ATP by scintillation counting method
# [5] = molecular target: Protein kinase C alpha type (Homo sapiens) (UniProt P17252); test: Inhibition of recombinant full-length human PKCalpha assessed as residual activity at 10 uM using histone H1 as substrate measured after 40 mins in presence of [gamma33P]ATP by scintillation counting method
# HCT-116 [6] = test: Induction of apoptosis in human HCT116 cells assessed as increase in cleaved caspase3 expression up to 200 nM measured after 48 hrs by Western blot analysis; type: functional, cell-based
# [7] = molecular target: Serine/threonine-protein kinase pim-1 (Homo sapiens) (UniProt P11309); test: Inhibition of recombinant full-length human Pim1 assessed as residual activity at 10 uM using KKRNRTLTV as substrate measured after 40 mins in presence of [gamma33P]ATP by scintillation counting method
# [8] = molecular target: Serine/threonine-protein kinase MRCK beta (Homo sapiens) (UniProt Q9Y5S2); test: Inhibition of recombinant human MRCKbeta (1 to 473 residues) assessed as residual activity at 10 uM using KKRNRTLTV as substrate measured after 40 mins in presence of [gamma33P]ATP by scintillation counting method
# [9] = molecular target: Bone morphogenetic protein receptor type-1B (Homo sapiens) (UniProt O00238); test: Inhibition of recombinant human ALK6 (148 to end residues) assessed as residual activity at 10 uM using casein as substrate measured after 40 mins in presence of [gamma33P]ATP by scintillation counting method
# [10] = molecular target: Homeodomain-interacting protein kinase 4 (Homo sapiens) (UniProt Q8NE63); test: Inhibition of recombinant full-length human HIPK4 assessed as residual activity at 10 uM using RRRFRPASPLRGPPK as substrate measured after 40 mins in presence of [gamma33P]ATP by scintillation counting method
# [11] = molecular target: Muscle, skeletal receptor tyrosine-protein kinase (Homo sapiens) (UniProt O15146); test: Inhibition of recombinant human MuSK (530 to end residues) assessed as residual activity at 10 uM using myelin basic protein as substrate measured after 40 mins in presence of [gamma33P]ATP by scintillation counting method
# Chain of Muscle, skeletal receptor tyrosine-protein kinase (Homo sapiens) (O15146 whole entry, the tested form may be a part): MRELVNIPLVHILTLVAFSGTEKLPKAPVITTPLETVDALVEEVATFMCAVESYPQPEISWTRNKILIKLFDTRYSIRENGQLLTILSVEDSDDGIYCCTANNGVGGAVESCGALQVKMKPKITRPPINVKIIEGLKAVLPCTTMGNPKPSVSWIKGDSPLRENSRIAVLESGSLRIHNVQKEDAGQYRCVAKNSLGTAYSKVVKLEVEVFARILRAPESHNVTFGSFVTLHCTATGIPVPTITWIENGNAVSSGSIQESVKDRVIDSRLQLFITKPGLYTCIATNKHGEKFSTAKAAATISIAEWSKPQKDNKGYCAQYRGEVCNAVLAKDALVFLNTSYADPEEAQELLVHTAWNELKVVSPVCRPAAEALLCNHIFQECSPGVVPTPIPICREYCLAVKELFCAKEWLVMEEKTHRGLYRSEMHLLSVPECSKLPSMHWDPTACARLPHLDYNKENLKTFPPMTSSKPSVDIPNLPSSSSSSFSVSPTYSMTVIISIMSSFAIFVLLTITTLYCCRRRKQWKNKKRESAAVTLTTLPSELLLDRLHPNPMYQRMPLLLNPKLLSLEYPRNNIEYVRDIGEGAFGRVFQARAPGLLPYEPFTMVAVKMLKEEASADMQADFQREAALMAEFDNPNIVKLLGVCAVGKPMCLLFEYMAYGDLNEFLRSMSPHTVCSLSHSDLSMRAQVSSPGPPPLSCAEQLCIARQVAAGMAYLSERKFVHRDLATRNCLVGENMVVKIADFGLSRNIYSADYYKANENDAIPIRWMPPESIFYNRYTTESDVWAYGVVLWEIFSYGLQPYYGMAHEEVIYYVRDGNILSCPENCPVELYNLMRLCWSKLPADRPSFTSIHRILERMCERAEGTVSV
# [12] = molecular target: Tyrosine-protein kinase HCK (Homo sapiens) (UniProt P08631); test: Inhibition of recombinant human HCK (230 to 497 residues) assessed as residual activity at 10 uM using Cdc2 peptide as substrate measured after 40 mins in presence of [gamma33P]ATP by scintillation counting method
# Chain of Tyrosine-protein kinase HCK (Homo sapiens) (P08631 2-526 limits assumed): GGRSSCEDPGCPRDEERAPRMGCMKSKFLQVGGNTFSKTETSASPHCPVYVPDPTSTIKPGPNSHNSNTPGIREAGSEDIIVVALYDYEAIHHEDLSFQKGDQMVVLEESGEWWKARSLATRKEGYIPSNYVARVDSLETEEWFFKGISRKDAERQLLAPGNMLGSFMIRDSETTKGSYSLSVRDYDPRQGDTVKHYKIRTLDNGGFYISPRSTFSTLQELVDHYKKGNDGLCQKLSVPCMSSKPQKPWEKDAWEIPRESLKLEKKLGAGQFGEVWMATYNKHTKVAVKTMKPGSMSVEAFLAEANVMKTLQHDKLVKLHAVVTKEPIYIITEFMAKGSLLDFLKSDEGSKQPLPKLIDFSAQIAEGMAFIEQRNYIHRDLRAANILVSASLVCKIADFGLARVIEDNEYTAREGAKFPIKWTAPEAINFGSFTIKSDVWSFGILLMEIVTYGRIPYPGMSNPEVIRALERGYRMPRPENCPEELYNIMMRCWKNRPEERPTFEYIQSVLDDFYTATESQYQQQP
# [13] = molecular target: Dual specificity mitogen-activated protein kinase kinase 6 (Homo sapiens) (UniProt P52564); test: Inhibition of recombinant human MKK6 (4 to end residues) assessed as residual activity at 10 uM using unactive SAPK2a as substrate measured after 40 mins in presence of [gamma33P]ATP by scintillation counting method
# Chain of Dual specificity mitogen-activated protein kinase kinase 6 (Homo sapiens) (P52564 whole entry): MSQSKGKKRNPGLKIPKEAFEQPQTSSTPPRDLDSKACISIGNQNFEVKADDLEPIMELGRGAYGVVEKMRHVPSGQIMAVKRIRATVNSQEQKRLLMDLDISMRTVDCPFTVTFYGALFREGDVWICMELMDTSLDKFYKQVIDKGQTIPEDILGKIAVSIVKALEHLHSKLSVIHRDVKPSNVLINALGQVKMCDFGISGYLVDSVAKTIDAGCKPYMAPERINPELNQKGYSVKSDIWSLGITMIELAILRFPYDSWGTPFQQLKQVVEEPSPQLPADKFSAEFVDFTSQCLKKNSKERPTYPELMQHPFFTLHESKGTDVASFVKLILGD
# [14] = molecular target: Serine/threonine-protein kinase MRCK gamma (Homo sapiens) (UniProt Q6DT37); test: Inhibition of recombinant human MRCKgamma assessed as residual activity at 10 uM using KKRNRTLTV as substrate measured after 40 mins in presence of [gamma33P]ATP by scintillation counting method
# [15] = molecular target: Phosphorylase b kinase gamma catalytic chain, skeletal muscle/heart isoform (Homo sapiens) (UniProt Q16816); test: Inhibition of recombinant full-length human PhKgamma1 assessed as residual activity at 10 uM using KKLNRTLSFAEPG as substrate measured after 120 mins in presence of [gamma33P]ATP by scintillation counting method
# Chain of Phosphorylase b kinase gamma catalytic chain, skeletal muscle/heart isoform (Homo sapiens) (Q16816 whole entry, looked up, the tested form may be a part, canonical isoform): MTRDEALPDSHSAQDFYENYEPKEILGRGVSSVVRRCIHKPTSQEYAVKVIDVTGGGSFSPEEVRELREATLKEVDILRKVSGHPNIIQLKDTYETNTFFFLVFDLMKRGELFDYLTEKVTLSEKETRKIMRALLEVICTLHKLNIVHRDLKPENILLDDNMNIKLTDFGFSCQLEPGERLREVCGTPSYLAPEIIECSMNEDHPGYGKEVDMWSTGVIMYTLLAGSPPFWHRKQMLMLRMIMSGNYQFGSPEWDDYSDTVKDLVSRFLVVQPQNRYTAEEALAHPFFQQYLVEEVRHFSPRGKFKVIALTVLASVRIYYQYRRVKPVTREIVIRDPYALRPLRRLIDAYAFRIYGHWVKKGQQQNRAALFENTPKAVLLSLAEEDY
# [16] = molecular target: Maternal embryonic leucine zipper kinase (Homo sapiens) (UniProt Q14680); test: Inhibition of recombinant human MELK (1 to 340 residues) assessed as residual activity at 10 uM using KKLNRTLSFAEPG as substrate measured after 40 mins in presence of [gamma33P]ATP by scintillation counting method
# Chain of Maternal embryonic leucine zipper kinase (Homo sapiens) (Q14680 whole entry, looked up, the tested form may be a part): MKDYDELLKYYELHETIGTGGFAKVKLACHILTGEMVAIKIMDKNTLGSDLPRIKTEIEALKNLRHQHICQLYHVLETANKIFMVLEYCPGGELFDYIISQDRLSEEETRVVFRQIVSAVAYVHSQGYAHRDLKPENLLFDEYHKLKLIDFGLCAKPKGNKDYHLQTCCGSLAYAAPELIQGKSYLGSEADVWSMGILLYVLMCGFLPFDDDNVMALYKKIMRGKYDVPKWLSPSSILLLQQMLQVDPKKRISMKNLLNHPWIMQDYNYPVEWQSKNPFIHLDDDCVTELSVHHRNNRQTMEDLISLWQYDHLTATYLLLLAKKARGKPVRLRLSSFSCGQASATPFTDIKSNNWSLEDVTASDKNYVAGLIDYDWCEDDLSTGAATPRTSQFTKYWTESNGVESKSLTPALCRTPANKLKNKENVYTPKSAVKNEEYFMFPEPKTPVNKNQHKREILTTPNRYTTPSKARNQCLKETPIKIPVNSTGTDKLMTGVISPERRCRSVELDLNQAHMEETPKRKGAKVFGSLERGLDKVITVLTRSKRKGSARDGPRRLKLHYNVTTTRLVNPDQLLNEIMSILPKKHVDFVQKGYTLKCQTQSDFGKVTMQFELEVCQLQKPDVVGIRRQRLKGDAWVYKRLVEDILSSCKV
# [17] = molecular target: G protein-coupled receptor kinase 6 (Homo sapiens) (UniProt P43250); test: Inhibition of recombinant full-length human GRK6 assessed as residual activity at 10 uM using casein as substrate measured after 40 mins in presence of [gamma33P]ATP by scintillation counting method
# [18] = molecular target: Fibroblast growth factor receptor 3 (Homo sapiens) (UniProt P22607); test: Inhibition of recombinant human FGFR3 (447 to 761 residues) assessed as residual activity at 10 uM using poly(Glu, Tyr) 4:1 as substrate measured after 40 mins in presence of [gamma33P]ATP by scintillation counting method
# A549 = test: Antiproliferative activity against human A549 cells assessed as reduction in cell viability after 72 hrs by MTT assay; type: functional, cell-based; details: A549, 72 h
# SW-620 [19] = test: Induction of apoptosis in human SW620 cells assessed as necrotic cells at 25 nM measured after 48 hrs by Annexin V-FITC/propidium iodide staining-based flow cytometry (reference value: 2.71%); type: functional
# SW-620 [20] = test: Induction of apoptosis in human SW620 cells assessed as increase in cleaved caspase3 expression up to 200 nM measured after 48 hrs by Western blot analysis; type: functional, cell-based
# [21] = molecular target: Platelet-derived growth factor receptor beta (Homo sapiens) (UniProt P09619); test: Inhibition of recombinant human PDGFRbeta (557 to end residues) assessed as residual activity at 10 uM using poly(Glu, Tyr) 4:1 as substrate measured after 40 mins in presence of [gamma33P]ATP by scintillation counting method
# [22] = molecular target: Fibroblast growth factor receptor 2 (Homo sapiens) (UniProt P21802); test: Inhibition of recombinant human FGFR2 (456 to 770 residues) assessed as residual activity at 10 uM using poly(Glu, Tyr) 4:1 as substrate measured after 40 mins in presence of [gamma33P]ATP by scintillation counting method
# Chain of Fibroblast growth factor receptor 2 (Homo sapiens) (P21802 22-821 limits assumed): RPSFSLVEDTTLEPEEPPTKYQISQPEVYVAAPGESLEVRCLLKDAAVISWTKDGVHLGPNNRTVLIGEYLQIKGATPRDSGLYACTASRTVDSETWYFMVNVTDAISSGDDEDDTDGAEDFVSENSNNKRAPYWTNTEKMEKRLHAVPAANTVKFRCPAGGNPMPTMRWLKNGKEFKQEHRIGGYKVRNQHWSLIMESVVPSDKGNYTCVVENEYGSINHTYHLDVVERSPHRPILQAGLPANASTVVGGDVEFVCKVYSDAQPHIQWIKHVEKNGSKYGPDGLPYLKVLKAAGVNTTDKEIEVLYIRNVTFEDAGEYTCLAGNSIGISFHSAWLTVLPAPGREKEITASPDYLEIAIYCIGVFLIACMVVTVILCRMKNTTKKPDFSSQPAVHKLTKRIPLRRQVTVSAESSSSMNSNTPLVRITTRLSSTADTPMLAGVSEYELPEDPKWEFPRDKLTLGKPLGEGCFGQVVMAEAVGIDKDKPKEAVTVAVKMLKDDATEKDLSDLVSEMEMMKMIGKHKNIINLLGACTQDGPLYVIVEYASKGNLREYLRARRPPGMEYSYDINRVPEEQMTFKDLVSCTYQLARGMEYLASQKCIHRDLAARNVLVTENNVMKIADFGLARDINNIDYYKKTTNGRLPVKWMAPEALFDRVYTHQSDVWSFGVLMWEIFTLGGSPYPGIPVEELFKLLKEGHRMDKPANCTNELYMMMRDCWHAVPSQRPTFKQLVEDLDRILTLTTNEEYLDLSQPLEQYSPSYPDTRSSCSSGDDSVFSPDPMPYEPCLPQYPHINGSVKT
# [23] = Toxicity in Balb/c mouse lung at 80 mg/kg after 4 weeks by hematoxylin and eosin staining-based assay; type: organism-based; details: in vivo, 672 h
compound,measurement,setting,value
Cc1cc(C)c(CNc2nc(Cl)nc3c2ncn3C2CCCC2)c(=O)[nH]1,Activity,[1],88.5%
same,viability at 0.025 µM,HCT-116 [2],95.9%
same,Activity,[3],112%
same,Activity,Homo sapiens,102%
same,Activity,[4],105%
same,Activity,[5],88.5%
same,Activity,HCT-116 [6],Active
same,Activity,[7],106%
same,Activity,[8],112%
same,Activity,[9],103%
same,Activity,[10],110%
same,Activity,[11],114%
same,Activity,[12],106%
same,Activity,[13],114%
same,Activity,[14],122%
same,Activity,[15],104%
same,Activity,[16],114%
same,Activity,[17],104%
same,Activity,[18],94.5%
same,pIC50,A549,7.01
same,Activity,SW-620 [19],2.71%
same,Activity,SW-620 [20],Active
same,Activity,[21],117%
same,Activity,[22],106%
same,Activity,[23],Non-Toxic
